Experimental data taken from patent US20040029208A1, “Assay method and kit for testing biological material for exposure to stress using biomarkers” (priority 2000, published 2004).

Experiments:
Bellis perennis = assay: TLC phytochemical changes after Roundup Bio (sensitivity); type: in vivo
From the text: (§1) Glyphosate (Roundup Bio (360 g L1:) was supplied by Monsanto Denmark ANS. Recommended field dose =1,44 kg a.i. ha^−1. In all the experiments, an automatic sprayer (designed in Denmark by Jens Kristensen 1994) was used where the herbicide application is achieved by moving boom equipment with two ordinary hydraulic flat fan nozzles (Hardl 4110-16). Two pots per spray event were placed in the middle of the spray chamber at 50 cm distance from the nozzle, delivering 200 L of water per hectare with a desired herbicide concentration (working pressure 2 bars; speed of spray boom=4.7 km h^1). The spraying was performed starting with the lowest concentration first, progressing towards the highest concentration. Between each herbicide, the sprayer was thoroughly rinsed several times with water. The control plants were sprayed with water.
(§2) The study was performed in greenhouse between August and December 1998 for all species. Degree days (=(Present temperature in ° C.-5° C.)×amount of days) were used as time scale. The plants were 226-378 degree days (30 days) old before exposure. The plants were exposed to 0, 1. 10 and 100% of the recommended field dose of Roundup Bio. Before the harvest, the plants were evaluated for visual effects using the rating chart described in Table 1 (Hamit et al., 1977). A rating of zero indicates full growth and vigour (compared with control plants) and a rating of nine, no growth/mortality. The plants were all harvested 180 degree days (14 days) after exposure. The plants were lyophilizied and k pt dry and in dark before phytochemical analysis.
(§3) 250 mg lyophilized plant material was crushed and extracted with 5.00 ml 75% ethanol in water in ultrasonic bath for two hours. Ice was added to the bath every 30 minutes to keep the temperature constant during the extraction. The extracts wer transferred to vials and centrifuged (3000 g per min.) for 10 minut s. The extract was immediately used for phytochemical analysis.
(§4) Frozen or fresh plant material was pressed for plant sap using a hand press. The sap was transferred to vials and centrifuged (3000 g per min.) for 10 minutes. The extract was immediately used for phytochemical analysis.
(§5) Rf-values (defined as, Rf-value=Distance of spot centre from start point/Distance of solvent front from start point (Stahl, 1969)) were determined for all phytochemical compounds.
(§6) In table 2 the sensitivity of the different plant species to Roundup Bio is presented. The sensitivity of the plant species was evaluated on basis of the presence of the most frequent pattern, the lowest concentration of exposure, and the visual effect of the exposed plants. In table 2, the plant species are divided into three groups: Group I: Very sensitive plant species; Group II: Medium sensitive plant species, and Group III: Less sensitive plant species. In Group I, a phytochemical pattern was present in plants exposed to 1% of the recommended field dose of Roundup Bio with a visual effect from 0 to 4. In Group II, a phytochemical pattern was found in plants exposed to 1 to 10% of the recommended field dose of the herbicide with a visual effect from 0 to 5. Finally, Group III presents plant species containing a phytochemical pattern after exposure of 10% of the recommended field dose with a visual effect from 5 to 7.
(§7) Table 2: Sensitivity of plants exposed to glyphosate (Roundup Bio), based on presence of phytochemical changes in all the TLC-Systems at lowest dose of concentration (LC) of the herbicide in percent of field dose. The corresponding visual effect (VE) Is presented (see table 1).

Fallopia convolvulus = assay: as above; type: in vivo
From the text: as §1, §2, §3, §4, §5, §6, §7

Leonorus carica = assay: as above; type: in vivo
From the text: as §1, §2, §3, §4, §5, §6, §7

Mentha spicata = assay: as above; type: in vivo
From the text: as §1, §2, §3, §4, §5, §6, §7

Nepeta cataria = assay: as above; type: in vivo
From the text: as §1, §2, §3, §4, §5, §6, §7

Papaver rhoeas = assay: as above; type: in vivo
From the text: as §1, §2, §3, §4, §5, §6, §7

Rudbeckia hirta = assay: as above; type: in vivo
From the text: as §1, §2, §3, §4, §5, §6, §7

Rumex crispus = assay: as above; type: in vivo
From the text: as §1, §2, §3, §4, §5, §6, §7

Sinapis avensis = assay: as above; type: in vivo
From the text: as §1, §2, §3, §4, §5, §6, §7

white birch seedlings = settings: within 24h of application, even at 1% of field rate; cited from earlier work

Q: Which results are given for `O=C(O)CNCP(=O)(O)O` [Glyphosate]?
A: LC: lowest dose of concentration of the herbicide with phytochemical changes in all the TLC-Systems (Bellis perennis): 10% of field dose; LC: lowest dose of concentration of the herbicide with phytochemical changes in all the TLC-Systems (Fallopia convolvulus): 1% of field dose; LC: lowest dose of concentration of the herbicide with phytochemical changes in all the TLC-Systems (Leonorus carica): 10% of field dose; LC: lowest dose of concentration of the herbicide with phytochemical changes in all the TLC-Systems (Mentha spicata): 10% of field dose; LC: lowest dose of concentration of the herbicide with phytochemical changes in all the TLC-Systems (Nepeta cataria): 10% of field dose; LC: lowest dose of concentration of the herbicide with phytochemical changes in all the TLC-Systems (Papaver rhoeas): 1% of field dose; LC: lowest dose of concentration of the herbicide with phytochemical changes in all the TLC-Systems (Rudbeckia hirta): 1% of field dose; LC: lowest dose of concentration of the herbicide with phytochemical changes in all the TLC-Systems (Rumex crispus): 1% of field dose; LC: lowest dose of concentration of the herbicide with phytochemical changes in all the TLC-Systems (Sinapis avensis): 10% of field dose; increase of shikimic acid levels (white birch seedlings): 10 fold
